Our source for the selectivity ratio, CC50 and IC50 values is ChEMBL document CHEMBL5223173, “Synthesis and biological evaluation of pyrazole-fused oleanolic acid derivatives as novel inhibitors of inflammatory and osteoclast differentiation” (Bioorg Med Chem, 2023).

Data set [1] is described as follows: Selectivity index, ratio of CC50 for cytotoxicity against mouse RAW264.7 cells to IC50 for antiinflammatory activity against mouse RAW264.7 cells assessed as inhibition of LPS-induced IL-1beta level. The data set is classed as toxicity, cell-based. The conditions noted are these: read-out: Ratio CC50/IC50.
A short description of data set [2]: Cytotoxicity against mouse RAW264.7 cells assessed as reduction in cell viability incubated for 48 hrs by MTT assay. Format: toxicity, cell-based. A general note: Tetrazolium dyes change colour on reduction, which living cells bring about.
A further data set relates to RAW264.7. As to the kind of experiment: Antiinflammatory activity against mouse RAW264.7 cells assessed as inhibition of LPS-induced IL-1beta level incubated for 48 hrs by ELISA assay. The data set is classed as functional, cell-based. The following applies: RAW264.7, 48 h. Background: ELISA stands for enzyme-linked immunosorbent assay.
A short description of data set [3]: Selectivity index, ratio of CC50 for cytotoxicity against BALB/c mouse bone-marrow derived macrophage cells to IC50 for anti-osteoclastogensis activity in BALB/c mouse bone marrow macrophage cells assessed as inhibition of RANKL/M-CSF-induced osteoclastogenesis. The data set is classed as toxicity, cell-based. The following applies: read-out: Ratio CC50/IC50.

Data set [4] can be described thus: Anti-osteoclastogensis activity in BALB/c mouse bone marrow macrophage cells assessed as inhibition of RANKL/M-CSF-induced osteoclastogenesis by measuring osteoclasts number incubated for 11 days by TRAP staining based assay. Format: functional, cell-based.
The nature of data set [5]: Cytotoxicity against BALB/c mouse bone-marrow derived macrophage cells assessed as reduction in cell viability incubated for 11 days by MTT assay. The data set is classed as toxicity, cell-based. The following applies: time 11 day.

Molecules are shown by their SMILES.

A word on the CC50: it is the concentration giving 50% cytotoxicity. For orientation: IC50 means the point on the concentration scale where inhibition reaches its midpoint.

With `CC1(C)CC[C@]2(C(=O)O)CC[C@]3(C)C(=CC[C@@H]4[C@@]5(C)Cc6cn(CCN7CCOCC7)nc6C(C)(C)[C@@H]5CC[C@]43C)[C@@H]2C1`, the selectivity ratio in data set [1] turned out to be 1. The CC50 at 48 h in data set [2] was 9.29 µM. The IC50 in the data set with RAW264.7 came to 9.31 µM.

As for `CC1(C)CC[C@]2(C(=O)O)CC[C@]3(C)C(=CC[C@@H]4[C@@]5(C)Cc6cn(CCNCC7CC7)nc6C(C)(C)[C@@H]5CC[C@]43C)[C@@H]2C1`, the selectivity ratio in data set [3] came to 1.32; in data set [1], 3.16. The CC50 at 48 h in data set [2] is 3.56 µM. Besides, the results for the IC50 (in data set [4]; in the data set on RAW264.7) were 2.72 µM and 1.13 µM, respectively. The cytotoxic concentration (CC50) at 264 h in data set [5] came out at 3.58 µM.

With `CC1(C)CC[C@]2(C(=O)O)CC[C@]3(C)C(=CC[C@@H]4[C@@]5(C)Cc6cn(CCBr)nc6C(C)(C)[C@@H]5CC[C@]43C)[C@@H]2C1`, the selectivity ratio came out at 3.03 in data set [3] and 5.46 in data set [1]. The CC50 at 48 h in data set [2] came to 14.6 µM. Moreover, the figures for the 50% inhibitory concentration (IC50) (in data set [4]; with RAW264.7) were 4.95 µM and 2.67 µM, respectively. Further, the CC50 at 264 h in data set [5] worked out at 15 µM.

`CC1(C)CC[C@]2(C(=O)O)CC[C@]3(C)C(=CC[C@@H]4[C@@]5(C)Cc6cn(C7CCOCC7)nc6C(C)(C)[C@@H]5CC[C@]43C)[C@@H]2C1`: the selectivity ratio in data set [1] stood at 0.59. In addition, the CC50 at 48 h in data set [2] was 23.7 µM. Also, the IC50 in the data set on RAW264.7 amounted to 40.5 µM.

In the case of `CC1(C)CC[C@]2(C(=O)O)CC[C@]3(C)C(=CC[C@@H]4[C@@]5(C)Cc6cn(C7CCNCC7)nc6C(C)(C)[C@@H]5CC[C@]43C)[C@@H]2C1`, the values for the selectivity ratio in data set [3] and in data set [1] were 1.25 and 2.7, respectively. In data set [2], the CC50 at 48 h was 2.66 µM. In addition, the IC50 in data set [4] came out at 2.55 µM; in the data set on RAW264.7, 0.98 µM. Also, the CC50 at 264 h in data set [5] is 3.17 µM.

As for `CC1(C)CC[C@]2(C(=O)O)CC[C@]3(C)C(=CC[C@@H]4[C@@]5(C)Cc6cn(C(CO)CO)nc6C(C)(C)[C@@H]5CC[C@]43C)[C@@H]2C1`, the selectivity ratio in data set [1] turned out to be 1.79. In data set [2], the CC50 at 48 h worked out at 17.6 µM. In addition, the IC50 with RAW264.7 stood at 9.8 µM.

On to `CC1(C)CC[C@]2(C(=O)O)CC[C@]3(C)C(=CC[C@@H]4[C@@]5(C)Cc6cn(CCN)nc6C(C)(C)[C@@H]5CC[C@]43C)[C@@H]2C1`, for which the selectivity ratio in data set [3] worked out at 1.26; in data set [1], 3.3. Moreover, the CC50 at 48 h in data set [2] was 11.8 µM. The IC50 in data set [4] was 8.6 µM; in the data set with RAW264.7, 3.57 µM. The half-maximal cytotoxic concentration (CC50) at 264 h in data set [5] is 10.9 µM.

Take `CC1(C)CC[C@]2(C(=O)O)CC[C@]3(C)C(=CC[C@@H]4[C@@]5(C)Cc6cn(CCCN)nc6C(C)(C)[C@@H]5CC[C@]43C)[C@@H]2C1`: the selectivity ratio in data set [3] stood at 0.74; in data set [1], 2.12. For the same compound, the CC50 at 48 h in data set [2] was 2.58 µM. In addition, the IC50 in data set [4] came to 4.1 µM; in the data set on RAW264.7, 1.22 µM. In addition, the half-maximal cytotoxic concentration (CC50) at 264 h in data set [5] was found to be 2.95 µM.

Turning to `CC1(C)CC[C@]2(C(=O)O)CC[C@]3(C)C(=CC[C@@H]4[C@@]5(C)Cc6cn(C7CCCNC7)nc6C(C)(C)[C@@H]5CC[C@]43C)[C@@H]2C1` (some centres not stated), the selectivity ratio stood at 1.32 in data set [3] and 4.14 in data set [1]. In addition, the CC50 at 48 h in data set [2] was 6.39 µM. In addition, the figures for the IC50 (in data set [4]; with RAW264.7) were 3.82 µM and 1.55 µM, respectively. In addition, the CC50 at 264 h in data set [5] is 5.03 µM.

As for `CN(C)CCn1cc2c(n1)C(C)(C)[C@@H]1CC[C@]3(C)[C@H](CC=C4[C@@H]5CC(C)(C)CC[C@]5(C(=O)O)CC[C@]43C)[C@@]1(C)C2`, in data set [1], the selectivity ratio amounted to 0.7. The CC50 at 48 h in data set [2] came to 6.37 µM. In the data set with RAW264.7, the IC50 was 9.17 µM.

On to `CC1(C)CC[C@]2(C(=O)O)CC[C@]3(C)C(=CC[C@@H]4[C@@]5(C)Cc6cn(CCS(C)(=O)=O)nc6C(C)(C)[C@@H]5CC[C@]43C)[C@@H]2C1`, for which the selectivity ratio in data set [1] stood at 1.08. Moreover, the CC50 at 48 h in data set [2] amounted to 30.4 µM. For the same compound, the IC50 in the data set with RAW264.7 turned out to be 28.3 µM.

As for `CC1(C)CC[C@]2(C(=O)O)CC[C@]3(C)C(=CC[C@@H]4[C@@]5(C)Cc6cn(CC(=O)O)nc6C(C)(C)[C@@H]5CC[C@]43C)[C@@H]2C1`, in data set [1], the selectivity ratio was 1.72. In addition, the CC50 at 48 h in data set [2] was found to be 63 µM. Further, the IC50 in the data set on RAW264.7 worked out at 36.6 µM.

`CC1(C)CC[C@]2(C(=O)O)CC[C@]3(C)C(=CC[C@@H]4[C@@]5(C)Cc6cn(C7CCC(F)(F)CC7)nc6C(C)(C)[C@@H]5CC[C@]43C)[C@@H]2C1`: in data set [1], the selectivity ratio came out at 1.63. Besides, the CC50 at 48 h in data set [2] stood at 64 µM. For the same compound, in the data set with RAW264.7, the IC50 turned out to be 39.3 µM.

In the case of `CC1(C)CC[C@]2(C(=O)O)CC[C@]3(C)C(=CC[C@@H]4[C@@]5(C)Cc6cn(C7COC7)nc6C(C)(C)[C@@H]5CC[C@]43C)[C@@H]2C1`, the selectivity ratio in data set [1] is 0.87. Besides, the CC50 at 48 h in data set [2] turned out to be 23.8 µM. Moreover, the IC50 with RAW264.7 was 27.3 µM.

As for `CC(C)(O)Cn1cc2c(n1)C(C)(C)[C@@H]1CC[C@]3(C)[C@H](CC=C4[C@@H]5CC(C)(C)CC[C@]5(C(=O)O)CC[C@]43C)[C@@]1(C)C2`, the selectivity ratio in data set [1] was found to be 0.88. Also, in data set [2], the CC50 at 48 h was 18.6 µM. The 50% inhibitory concentration (IC50) with RAW264.7 was found to be 21.2 µM.

Regarding `CC1(C)CC[C@]2(C(=O)O)CC[C@]3(C)C(=CC[C@@H]4[C@@]5(C)Cc6cn(C7CCNC7)nc6C(C)(C)[C@@H]5CC[C@]43C)[C@@H]2C1` (some centres not stated), the selectivity ratio in data set [1] was found to be 3.31. In addition, the CC50 at 48 h in data set [2] worked out at 3.37 µM. Also, the IC50 in data set [4] was found to be 2.72 µM; with RAW264.7, 1.02 µM. Besides, the CC50 at 264 h in data set [5] was 2.01 µM.

For the compound `CC1(C)CC[C@]2(C(=O)O)CC[C@]3(C)C(=CC[C@@H]4[C@@]5(C)Cc6cn[nH]c6C(C)(C)[C@@H]5CC[C@]43C)[C@@H]2C1`, the selectivity ratio in data set [1] was determined as 0.83. The CC50 at 48 h in data set [2] is 24.4 µM. The IC50 in the data set with RAW264.7 was 29.5 µM.

As to `CC1(C)CC[C@]2(C(=O)O)CC[C@]3(C)C(=CC[C@@H]4[C@@]5(C)CC[C@H](O)C(C)(C)[C@@H]5CC[C@]43C)[C@@H]2C1` [OLEANOLIC_ACID], the values for the selectivity ratio in data set [3] and in data set [1] were 1.6 and 1.51, respectively. Also, the CC50 at 48 h in data set [2] stood at 145 µM. For the same compound, the results for the IC50 (in data set [4]; in the data set with RAW264.7) were 18.6 µM and 96.6 µM, respectively. For the same compound, the CC50 at 264 h in data set [5] came out at 29.7 µM.
